According to US5591717A, “Branched apogenic peptide for inducing apoptosis” (priority 1994, dated 1997):

How the values were obtained:
HL60 cells [1] = test: Augmentation by 1,25-dihydroxy vitamin D3 in HL60 cells, microscopy; format: cell-based, human; conditions: simultaneous exposure
Procedure: At 1 μM, 1,25-dihydroxy vitamin D3 will drive differentiation of HL60 cells into monocytes; overt differentiation requires 72-96 hours. Accordingly, HL60 cell cultures were simultaneously exposed to a subapoptotic dose of 1 μM CSarma VR5-BAP and 0.5 or 1.0 μM 1, 25-dihydroxy vitamin D3. The cultures were then evaluated by inverted phase microscopy of tissue culture plates and by light microscopic examination of Wright-Giemsa stained cytocentrifuge preparations.

HL60 cells [2] = test: Sodium butyrate or retinoic acid with sub-apoptotic CSarma VR5-BAP in HL60 cells; format: cell-based, human; conditions: 1 μM agent, 2, 3 and 5 days
Procedure: At 1 μM sodium butyrate and retinoic acid induce monocytic and granulocytic differentiation in HL60 cells, respectively. Neither the sodium butyrate nor retinoic acid is specifically associated with calcium transport. HL60 cells were simultaneously exposed to such […] dose (1 μM) of CSarma VR5-BAP and to either 1 μM sodium butyrate or 1 μM retinoic acid. Cells were cultured for 5 days and evaluated by inverted phase contrast microscopy and light microscopic examination of Wright-Giemsa-Stained cytrocentrifuge preparation. Samples were taken at 2, 3 and 5 days.

[3] = system: HL60, K562, 3201 and H9 cells
Procedure: A commonly used anti-apogenic compound is zinc. HL60, K562, 3201 and H9 cells were exposed to 1, 2, 4, 7.9, 15.7, 31.3, 62.5, 125, 250, 500, and 1000 μM zinc sulfate and 6 μM CSarma VR5-BAP. The cells were cultured for 24 and 8 hours.

HL60 cell cultures = test: Heparin reversal of CSarma VR5-BAP effect in HL60 cells, MTT and INDO-1; format: cell-based, human
Procedure: HL60 cell cultures were treated with 6 μM CSarma VR5-BAP and 0.3 U/ml, or 3.0 U/ml heparin. Control cell cultures received either no polypeptide or 0.3 U/ml or 3.0 U/ml heparin. Cell growth was determined at 1 and 2 days as assessed by MTT cell proliferation/viability assay. The mobilization of intracellular calcium was assessed by INDO-1 staining and anchored cell fluorescent microscopy.

Compound: C=C1/C(=C\C=C2/CCC[C@]3(C)[C@@H]([C@H](C)CCCC(C)(C)O)CC[C@@H]23)C[C@@H](O)C[C@@H]1O [1,25-dihydroxy vitamin D3, 1,25-dihydroxycholecalciferol]
- increase of sensitivity of HL60 cells to CSarma VR5-BAP (HL60 cells [1]): six-fold

Compound: CC1=C(/C=C/C(C)=C/C=C/C(C)=C/C(=O)O)C(C)(C)CCC1 [retinoic acid]
- apoptosis on simultaneous treatment with 1 μM CSarma VR5-BAP (HL60 cells [2]): did not cause apoptosis

Compound: CCCC(=O)[O-].[Na+] [sodium butyrate]
- apoptosis on simultaneous treatment with 1 μM CSarma VR5-BAP (HL60 cells [2]): did not cause apoptosis

Compound: O=S(=O)([O-])[O-].[Zn+2] [zinc sulfate]
- concentration with direct toxicity [3]: greater than 31.3 μM
- reversal of CSarma VR5-BAP induced apoptosis ([3]; 1 to 1000 μM zinc sulfate with 6 μM CSarma VR5-BAP): failed to reverse

Compound: heparin
- mobilization of intracellular calcium (HL60 cell cultures; INDO-1 staining): prevents mobilization of intracellular calcium
- concentration inhibiting the growth suppression of 6 μM CSarma VR5-BAP (HL60 cell cultures; MTT, 1 and 2 days): greater than or equal to 0.3 U/ml
